Patent publication US12139458B2, “(2,5-dioxopyrrolidin-1-yl)(phenyl)-acetamide derivatives and their use in the treatment of neurological diseases” (UNIWERSYTET JAGIELLONSKI, priority 2019, dated 2024)

Key:
Assay type in all cases: in vivo
[1] = system: male Swiss albino mice (CD-1); experiment: Psychomotor seizure test 6 Hz (32 mA); conditions: 0.5 h, mice; for ED50 6 Hz (32 mA): i.p.
Summary of the method: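 Compounds given i.p. in 1% aqueous Tween 30 min before a 3 s ocular stimulus (32 mA and/or 44 mA, 6 pulses/s) after lidocaine; mice normal within 10 s counted protected. ED50 from 3-4 groups of 6 mice; screening on groups of 4.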

[2] = system: male Swiss albino mice (CD-1); experiment: Subcutaneous pentylenetetrazole seizure test (scPTZ); conditions: 0.5 h, mice
Summary of the method: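 Compounds given i.p. in 1% aqueous Tween 30 min before s.c. PTZ at 100 mg/kg. Mice observed 30 min for clonic seizures (whole-body clonus ≥3 s with loss of righting reflex); absence counted as protection. ED50 from 3-4 groups of 6 mice; screening in groups of 4.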

[3] = system: male Swiss albino mice (CD-1); experiment: Maximal electroshock seizure test (MES); conditions: 0.5 h, mice
Summary of the method: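 Male CD-1 mice (18–26 g) received compound i.p. in 1% aqueous Tween 30 min before a 0.2 s, 500 V, 25 mA auricular electroshock.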

[4] = system: male Swiss albino mice (CD-1); experiment: Rotarod test (motor coordination); conditions: i.p., 0.5 h
Method: (§1) All procedures were carried out in accordance with applicable Polish and international guidelines on the ethics of animal testing, after obtaining appropriate institutional approval. The substances were administered intraperitoneally (i.p.), in 1% aqueous solution of Tween, as single injections with a volume of 10 ml/kg, 30 minutes before the given test. Screening was performed on groups consisted of 4 mice. […] All tests were carried out based on the procedures described in the specialist literature.
Mice were trained the day before the actual experiment. They were placed individually on a 2 cm diameter rod rotating at 10 revolutions per minute (rpm). During each training session, the animals remained on the rod for 3 minutes. The experiment was carried out 30 minutes after administration of the compounds. Motor coordination was tested at the speed of the rotating bar: 10 rpm during 60 seconds. Motor impairments were defined as the inability to remain on the rotating rod for 1 min.
(§2) To perform a statistical evaluation of the results, one-way ANOVA variance analysis and Dunnett's post hoc test (multiple comparison test) were used. The value at the significance level p<0.05 was considered statistically significant.

[5] = system: male Swiss albino mice (CD-1); experiment: Psychomotor seizure test 6 Hz (44 mA); conditions: 0.5 h, mice
Method: as §1
In the 6 Hz test, seizures were induced by an electric stimulus of 32 mA and/or 44 mA and a frequency of 6 pulses per second. […] Before starting the test, the eye surface was gently moistened with a solution of local anesthetic (1% lidocaine solution). The study was conducted 30 minutes after intraperitoneal administration of the compounds at various doses. An electrical pulse was delivered continuously for a period of 3 seconds, followed by observation of the animal for a period of 10 seconds. During this time, immobility or stun associated with rearing, forelimb clonus, twitching of the vibrissae and Straub's tail were observed. These symptoms persist throughout the observation period, indicating the occurrence of psychomotor seizures in mice.
as §2

[6] = system: male white Swiss mice (CD-1); experiment: Capsaicin-induced pain model; conditions: 200 mg/kg i.p.
Method: (§3) The tests were carried out using male white Swiss mice (CD-1) weighing 18-25 g. All procedures were carried out in accordance with Polish and international guidelines on ethics of animal testing, after obtaining appropriate institutional approval. The study group consisted of 8-10 animals. The tested and reference substances were administered intraperitoneally 30 minutes before given test as suspension in 1% aqueous solution of Tween. All tests/models were carried out based on the procedures described in the specialist literature: the formalin test (Beirith, A.; Santos, A. R.; Calixto, J. B.; Rodrigues, A. L.; Creczynski-Pasa, T. B. Eur. J. Pharmacol. 1998, 345, 233-245), the model of capsaicin-induced pain (Mogilski, S.; Kubacka, M.; Redzicka, A.; Kazek, G.; Dudek, M.; Malinka, W.; Filipek, B. Pharmacol. Biochem. Behav. 2015, 133, 99-110), the model of oxaliplatin-induced neuropathic pain—von Frey test (Sałat, K.; Cios, A.; Wyska, E.; Satat, R.; Mogilski, S.; Filipek, B.; Wigȩkowski, K.; Malawska, B. Pharmacol. Biochem. Behav. 2014, 122, 173-181).
This test assesses the time of licking and/or biting the hind paw into which mice were injected subplantarly with capsaicin in an amount of 1.6 μg, dissolved in 20 μl of a mixture containing 0.9% saline and ethanol (5% of the final volume). Observation was carried out […] after capsaicin administration. Test compounds were administered intraperitoneally 30 minutes before administration of capsaicin. Inhibition of nociceptive reaction—shortening the time of licking and biting the paw was the measure of antinociceptive activity of the compound tested.
Valproic acid (VPA) was the reference compound in this test. […] Compound 6 was administered at 20 mg/kg, 30 mg/kg and 40 mg/kg. Test compounds were administered as a suspension in 1.0% Tween 80 solution. The control group consisted of mice treated with vehicle alone (1% Tween 80 solution). The nociceptive reaction time in this group was 43.29±3.21 seconds.

[7] = system: male white Swiss mice (CD-1); experiment: Oxaliplatin-induced neuropathic pain, von Frey test; conditions: baseline 2.62±0.06 g, after OXPT 1.78±0.04 g
Method: as §3
Oxaliplatin (OXPT) was dissolved in a 5% glucose solution, followed by intraperitoneal administration to mice. A single dose of 10 mg/kg was used. Tactile and thermal (sensation of low temperature) allodynia associated with oxaliplatin-induced neuropathy are characterized by two phases. The early phase is acute and develops soon after administration of the OXPT, while the symptoms of the later (chronic) phase (associated with neurons damage), develops after a few days. Behavioral tests in mice with OXPT-induced neuropathy were carried out 7 days after its administration, i.e. in the late phase of neuropathy.
The influence of compounds tested on tactile allodynia was determined in the von Frey test. The animals were placed individually in cages with a reticulated bottom, 60 minutes before the beginning of the experiment, in order to adapt to the new environment. An electronic Von Frey apparatus (Electronic Von Frey, Bioseb, France) was used to assess the pain threshold for mechanical stimuli. The von Frey's fiber was applied to the underside of the right mouse paw with increasing pressure. […] The measurement was performed 3 times for each mouse, with at least 30 seconds between the measurements, then the results obtained were averaged. The entire study was performed 3 times: before OXPT administration to determine the baseline pain threshold; 7 days after administration of OXPT, and before administration of test compounds, to assess developing neuropathy by setting a new pain threshold; 30 minutes after administration of the compounds to determine their influence developed neuropathy.
Compound 6 was administered at doses of 10, 20 and 30 mg/kg.

[8] = system: male white Swiss mice (CD-1); experiment: Formalin test (analgesic activity)
Method: as §3
The pain was induced by the subplantar injection of 20 μL of 2.5% formalin solution into the mice right hind paw. The animals were placed in separate, transparent observation chambers for a period of 30 minutes. The measured value was the total licking and biting time of the paw to which the formalin solution was injected. The nociceptive reaction time was calculated for the first 5 minutes after formalin injection (first phase of the test—acute pain) and in the 15-20, 20-25 and 25-30 minutes time intervals after its administration (second phase of the test—inflammatory pain). The observed inhibition of nociceptive reaction—reduction of paw licking and biting time, was interpreted as the analgesic effect of the compound tested. Based on the results obtained, the ED50 dose was calculated (dose that reduces the nociceptive reaction time by 50%). […] Compound 6 was administered at doses of 10 mg/kg, 20 mg/kg and 30 mg/kg.

## O=C(C(c1ccccc1)N1C(=O)CCC1=O)N1CCN(c2cccc(SC(F)(F)F)c2)CC1 (stereo not drawn) [Compound 12]
[1]
  ED50 6 Hz (32 mA): 15.8 mg/kg
[1]; screening, 100 mg/kg i.p.
  6 Hz (32 mA): number of mice protected/number of mice tested: 4/4
[2]; i.p.
  ED50 scPTZ: >100 mg/kg
[2]; screening, 100 mg/kg i.p.
  scPTZ: number of mice protected/number of mice tested: 4/4
[3]; i.p.
  ED50 MES: 36.2 mg/kg
[3]; screening, 100 mg/kg i.p.
  MES: number of mice protected/number of mice tested: 4/4
[4]
  TD50: 150.0 mg/kg
[5]; i.p.
  ED50 6 Hz (44 mA): 57.9 mg/kg
[5]; screening, 100 mg/kg i.p.
  6 Hz (44 mA): number of mice protected/number of mice tested: ¾

## CCCC(CCC)C(=O)O [VPA, valproic acid, reference compound]
[6]
  analgesic activity, capsaicin test: 42.25%
[6]; control 43.29±3.21 seconds
  nociceptive reaction time, capsaicin test: 25.00 ± 4.57 s
[1]; Mus musculus, ip
  ED50: 131 mg/kg
[1]
  ED50 6 Hz (32 mA): 130.6 mg/kg
[7]; 50 mg/kg i.p.
  pain threshold, von Frey test: 2.75 ± 0.06 g
[7]; 100 mg/kg i.p.
  pain threshold, von Frey test: 3.18 ± 0.14 g
[7]; 150 mg/kg i.p.
  pain threshold, von Frey test: 3.97 ± 0.30 g
[8]; Mus musculus, ip, phase II (inflammatory pain, 15-30 min), i.p., mice, read-out: ED50 in the second phase of the formalin test
  ED50: 133 mg/kg
[8]; phase I, 100, 150 and 200 mg/kg i.p.
  analgesic activity in the first phase of the formalin test: no analgesic activity
